Experiments:
Kallikrein-6 [1] = target: T1, Kallikrein-6 (Homo sapiens, UniProt Q92876); assay: Activities on KLK6 (Boc-QAR-AMC): In a typical test, 100 μl of reaction medium contains the buffer, 1 μl of recombinant enzyme, 1 μl of substrate (Boc-QAR-AMC) and 1 μl of the compound tested at 10 μM (in the control, 1 μl of DMSO). In each well, the inhibitor is deposited in the presence of the enzyme-buffer mixture for preincubation for 15 minutes at 37° C. The enzymatic reaction is then …
Description: Activities on KLK6 (Boc-QAR-AMC): In a typical test, 100 μl of reaction medium contains the buffer, 1 μl of recombinant enzyme, 1 μl of substrate (Boc-QAR-AMC) and 1 μl of the compound tested at 10 μM (in the control, 1 μl of DMSO). In each well, the inhibitor is deposited in the presence of the enzyme-buffer mixture for preincubation for 15 minutes at 37° C. The enzymatic reaction is then triggered by adding the buffer-substrate mixture (100 μM). The release of the 7-amino-4-methylcoumarin fluorescent group (AMC, λex=360 nm, λem=460 nm) following the hydrolysis of the substrate catalyzed by the enzyme is monitored for 30 minutes at 37° C. using a FLUOstar spectrofluorimeter.

Plasminogen [2] = target: T2, Plasminogen (Homo sapiens, UniProt P00747); assay: Activities on Plasmin (Boc-QAR-AMC): In a typical test, 100 μl of reaction medium contains the buffer, 1 μl of recombinant enzyme, 1 μl of substrate (Boc-QAR-AMC) and 1 μl of the compound tested at 10 μM (in the control, 1 μl of DMSO). In each well, the inhibitor is deposited in the presence of the enzyme-buffer mixture for preincubation for 15 minutes at 37° C. The enzymatic reaction is then …
Description: Activities on Plasmin (Boc-QAR-AMC): In a typical test, 100 μl of reaction medium contains the buffer, 1 μl of recombinant enzyme, 1 μl of substrate (Boc-QAR-AMC) and 1 μl of the compound tested at 10 μM (in the control, 1 μl of DMSO). In each well, the inhibitor is deposited in the presence of the enzyme-buffer mixture for preincubation for 15 minutes at 37° C. The enzymatic reaction is then triggered by adding the buffer-substrate mixture (100 μM). The release of the 7-amino-4-methylcoumarin fluorescent group (AMC, λex=360 nm, λem=460 nm) following the hydrolysis of the substrate catalyzed by the enzyme is monitored for 30 minutes at 37° C. using a FLUOstar spectrofluorimeter.

Kallikrein-6 [3] = target: T1, Kallikrein-6; assay: Activities on KLK6 (MBP3): In a typical test, 100 μl of reaction medium contains the buffer, 1 μl of recombinant enzyme, 1 μl of substrate (MBP3) and 1 μl of the compound tested at 10 μM (in the control, 1 μl of DMSO). In each well, the inhibitor is deposited in the presence of the enzyme-buffer mixture for preincubation for 15 minutes at 37° C. The enzymatic reaction is then triggered by adding …
Description: Activities on KLK6 (MBP3): In a typical test, 100 μl of reaction medium contains the buffer, 1 μl of recombinant enzyme, 1 μl of substrate (MBP3) and 1 μl of the compound tested at 10 μM (in the control, 1 μl of DMSO). In each well, the inhibitor is deposited in the presence of the enzyme-buffer mixture for preincubation for 15 minutes at 37° C. The enzymatic reaction is then triggered by adding the buffer-substrate mixture (100 μM). The release of the 7-amino-4-methylcoumarin fluorescent group (AMC, λex=360 nm, λem=460 nm) following the hydrolysis of the substrate catalyzed by the enzyme is monitored for 30 minutes at 37° C. using a FLUOstar spectrofluorimeter.

Plasminogen [4] = target: T2, Plasminogen; assay: Activities on Plasmin (PAR4): In a typical test, 100 μl of reaction medium contains the buffer, 1 μl of recombinant enzyme, 1 μl of substrate (PAR4) and 1 μl of the compound tested at 10 μM (in the control, 1 μl of DMSO). In each well, the inhibitor is deposited in the presence of the enzyme-buffer mixture for preincubation for 15 minutes at 37° C. The enzymatic reaction is then triggered by …
Description: Activities on Plasmin (PAR4): In a typical test, 100 μl of reaction medium contains the buffer, 1 μl of recombinant enzyme, 1 μl of substrate (PAR4) and 1 μl of the compound tested at 10 μM (in the control, 1 μl of DMSO). In each well, the inhibitor is deposited in the presence of the enzyme-buffer mixture for preincubation for 15 minutes at 37° C. The enzymatic reaction is then triggered by adding the buffer-substrate mixture (100 μM). The release of the 7-amino-4-methylcoumarin fluorescent group (AMC, λex=360 nm, λem=460 nm) following the hydrolysis of the substrate catalyzed by the enzyme is monitored for 30 minutes at 37° C. using a FLUOstar spectrofluorimeter.

Kallikrein-6 [5] = target: T1, Kallikrein-6; assay: Activities on KLK6 (PAR2): In a typical test, 100 μl of reaction medium contains the buffer, 1 μl of recombinant enzyme, 1 μl of substrate (PAR2) and 1 μl of the compound tested at 10 μM (in the control, 1 μl of DMSO). In each well, the inhibitor is deposited in the presence of the enzyme-buffer mixture for preincubation for 15 minutes at 37° C. The enzymatic reaction is then triggered by adding …
Description: Activities on KLK6 (PAR2): In a typical test, 100 μl of reaction medium contains the buffer, 1 μl of recombinant enzyme, 1 μl of substrate (PAR2) and 1 μl of the compound tested at 10 μM (in the control, 1 μl of DMSO). In each well, the inhibitor is deposited in the presence of the enzyme-buffer mixture for preincubation for 15 minutes at 37° C. The enzymatic reaction is then triggered by adding the buffer-substrate mixture (100 μM). The release of the 7-amino-4-methylcoumarin fluorescent group (AMC, λex=360 nm, λem=460 nm) following the hydrolysis of the substrate catalyzed by the enzyme is monitored for 30 minutes at 37° C. using a FLUOstar spectrofluorimeter.

Kallikrein-1 = Kallikrein-1 (Homo sapiens, UniProt P06870); assay: Inhibitory Effect on the Enzymatic Activity of KLK: Table 4: The molecules were tested in order to evaluate their possible inhibitory effect on the enzymatic activity of KLK1. The % inhibitions were determined from the residual activity of the hydrolysis of the Boc-PFR-AMC fluorogenic substrate (100 μM) by KLK1 (1.6 nM) after 15 minutes of incubation at 37° C. with each molecule at 10 μM.
Sequence of Kallikrein-1 (P06870 whole entry): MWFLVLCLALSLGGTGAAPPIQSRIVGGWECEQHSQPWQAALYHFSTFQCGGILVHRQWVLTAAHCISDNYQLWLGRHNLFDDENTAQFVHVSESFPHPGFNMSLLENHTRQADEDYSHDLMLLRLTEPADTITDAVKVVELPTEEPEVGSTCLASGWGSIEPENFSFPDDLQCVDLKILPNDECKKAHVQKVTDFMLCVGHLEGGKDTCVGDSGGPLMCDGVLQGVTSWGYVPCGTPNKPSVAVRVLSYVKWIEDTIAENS

T2 sequence (P00747 97-580 limits assumed): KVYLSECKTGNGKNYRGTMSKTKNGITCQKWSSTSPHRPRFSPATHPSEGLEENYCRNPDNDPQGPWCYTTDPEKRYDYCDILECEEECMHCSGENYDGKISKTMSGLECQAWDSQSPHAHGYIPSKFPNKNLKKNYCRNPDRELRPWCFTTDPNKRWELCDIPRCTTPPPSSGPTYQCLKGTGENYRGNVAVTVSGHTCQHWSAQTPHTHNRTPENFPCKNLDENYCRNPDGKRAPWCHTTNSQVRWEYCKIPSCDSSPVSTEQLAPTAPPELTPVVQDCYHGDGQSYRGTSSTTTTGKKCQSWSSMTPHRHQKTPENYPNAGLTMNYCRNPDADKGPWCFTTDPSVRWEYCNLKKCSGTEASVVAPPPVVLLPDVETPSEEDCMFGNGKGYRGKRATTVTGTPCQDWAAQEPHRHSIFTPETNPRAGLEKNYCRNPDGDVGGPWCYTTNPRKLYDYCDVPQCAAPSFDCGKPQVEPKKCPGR
T2 sequence (P00747 581-810 limits assumed): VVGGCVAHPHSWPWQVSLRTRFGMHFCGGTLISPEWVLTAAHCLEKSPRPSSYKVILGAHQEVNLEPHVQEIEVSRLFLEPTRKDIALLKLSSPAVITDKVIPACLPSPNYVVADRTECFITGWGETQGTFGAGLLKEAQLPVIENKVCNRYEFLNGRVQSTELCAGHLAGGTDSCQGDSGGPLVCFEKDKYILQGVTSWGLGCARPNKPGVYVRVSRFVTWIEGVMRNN

IC50 (Kallikrein-6 [1]) [µM]	Ki (Kallikrein-6 [1]) [µM]	Ki (Plasminogen [2]) [µM]	IC50 (Kallikrein-6 [3]) [µM]	IC50 (Plasminogen [4]) [µM]	IC50 (Kallikrein-6 [5]) [µM]	IC50 (Plasminogen [2]) [µM]	IC50 (Kallikrein-1) [µM]	Compound
1.56	1.75	0.67						CC(C)c1ccc(C(=O)Nc2ccc(CN)cc2)c(O)c1
1.5	2.26		7.89	4.92	2.63			NCc1ccc(NC(=O)c2ccc3ccccc3c2O)cc1
				3.25		3.75	5.9	NCc1ccc(NC(=O)c2cc3ccccc3cc2O)cc1
		2.16				2.72	30.7	COc1ccc2c(O)c(C(=O)Nc3ccc(CN)cc3)ccc2c1
5.42	1.92	4.66	8.34		5.06	12.5	39.3	Cc1ccc(C(=O)Nc2ccc(CN)cc2)c(O)c1

— ChEMBL document CHEMBL5729509, “Compounds and compositions for the treatment of neurodegenerative and inflammatory diseases” (2023)
